Source: ChEMBL document CHEMBL3822423 (J Med Chem, 2016)
Values after ≈ are worked out from the molar mass of the structure shown. Active and inactive are the calls of the source. No cut-off for these calls is given here.

What was measured:
Format in all cases: functional
[1] = Antibacterial activity against Eberthella typhosa ATCC 14028 after 18 to 24 hrs
Micrococcus luteus = assay: Antibacterial activity against Micrococcus luteus ATCC 4698 after 18 to 24 hrs; details: NCTC 2665
Bacillus spizizenii = assay: Antibacterial activity against Bacillus subtilis ATCC 6633 after 18 to 24 hrs
Staphylococcus aureus [2] = assay: Antibacterial activity against Staphylococcus aureus ATCC 25923 after 18 to 24 hrs
Bacillus = assay: Antibacterial activity against Bacillus proteus ATCC 13315 after 18 to 24 hrs
Staphylococcus aureus [3] = assay: Antibacterial activity against methicillin-resistant Staphylococcus aureus N315 after 18 to 24 hrs
Pseudomonas aeruginosa = assay: Antibacterial activity against Pseudomonas aeruginosa ATCC 9027 after 18 to 24 hrs
Escherichia coli = assay: Antibacterial activity against Escherichia coli ATCC 25922 after 18 to 24 hrs

CCn1cc(C(C)=O)c(=O)c2cc(F)c(N3CCOCC3)cc21
MIC [1]: 2.3 µg/mL (≈ 7.22 µM) | MIC (Micrococcus luteus): 128 µg/mL (≈ 402 µM) | MIC (Bacillus spizizenii): inactive | MIC (Staphylococcus aureus [2]): 53.3 µg/mL (≈ 167 µM) | MIC (Bacillus): 2.7 µg/mL (≈ 8.48 µM) | MIC (Staphylococcus aureus [3]): 256 µg/mL (≈ 804 µM) | MIC (Pseudomonas aeruginosa): 256 µg/mL (≈ 804 µM) | MIC (Escherichia coli): 256 µg/mL (≈ 804 µM)

CCn1cc(C(C)=O)c(=O)c2cc(F)c(N3CCN(C(=O)OC(C)(C)C)CC3)cc21
MIC [1]: 42.7 µg/mL (≈ 102 µM) | MIC (Micrococcus luteus): inactive | MIC (Bacillus spizizenii): 21.3 µg/mL (≈ 51 µM) | MIC (Staphylococcus aureus [2]): 16 µg/mL (≈ 38.3 µM) | MIC (Bacillus): 16 µg/mL (≈ 38.3 µM) | MIC (Staphylococcus aureus [3]): 64 µg/mL (≈ 153 µM) | MIC (Pseudomonas aeruginosa): inactive | MIC (Escherichia coli): 128 µg/mL (≈ 307 µM)

CCn1cc(-c2csc(N)n2)c(=O)c2cc(N3CCNCC3)c(Cl)cc21
MIC [1]: 8 µg/mL (≈ 20.5 µM) | MIC (Micrococcus luteus): 32 µg/mL (≈ 82.1 µM) | MIC (Bacillus spizizenii): 2 µg/mL (≈ 5.13 µM) | MIC (Staphylococcus aureus [2]): 8 µg/mL (≈ 20.5 µM) | MIC (Bacillus): 6.4 µg/mL (≈ 16.4 µM) | MIC (Staphylococcus aureus [3]): inactive | MIC (Pseudomonas aeruginosa): 10.7 µg/mL (≈ 27.4 µM) | MIC (Escherichia coli): 128 µg/mL (≈ 328 µM)

CCn1cc(-c2csc(N)n2)c(=O)c2cc(Cl)cc(Cl)c21
MIC [1]: 2.7 µg/mL (≈ 7.94 µM) | MIC (Micrococcus luteus): 16 µg/mL (≈ 47 µM) | MIC (Bacillus spizizenii): 2.7 µg/mL (≈ 7.94 µM) | MIC (Staphylococcus aureus [2]): 3 µg/mL (≈ 8.82 µM) | MIC (Bacillus): 3.3 µg/mL (≈ 9.7 µM) | MIC (Staphylococcus aureus [3]): inactive | MIC (Pseudomonas aeruginosa): 2.3 µg/mL (≈ 6.76 µM) | MIC (Escherichia coli): 21.2 µg/mL (≈ 62.3 µM)

CCn1cc(-c2csc(N)n2)c(=O)c2cc(F)c(N3CCCC3)cc21
MIC [1]: 42.7 µg/mL (≈ 119 µM) | MIC (Micrococcus luteus): 107 µg/mL (≈ 298 µM) | MIC (Bacillus spizizenii): 53.3 µg/mL (≈ 149 µM) | MIC (Staphylococcus aureus [2]): 32 µg/mL (≈ 89.3 µM) | MIC (Bacillus): 128 µg/mL (≈ 357 µM) | MIC (Staphylococcus aureus [3]): 17.3 µg/mL (≈ 48.3 µM) | MIC (Pseudomonas aeruginosa): 42.7 µg/mL (≈ 119 µM) | MIC (Escherichia coli): 9.3 µg/mL (≈ 25.9 µM)

CCn1cc(C(C)=O)c(=O)c2cc(F)c(N3CCCCC3)cc21
MIC [1]: 121 µg/mL (≈ 383 µM) | MIC (Micrococcus luteus): 10.1 µg/mL (≈ 31.9 µM) | MIC (Bacillus spizizenii): 12.7 µg/mL (≈ 40.1 µM) | MIC (Staphylococcus aureus [2]): 8.9 µg/mL (≈ 28.1 µM) | MIC (Bacillus): 20.3 µg/mL (≈ 64.2 µM) | MIC (Staphylococcus aureus [3]): 17.8 µg/mL (≈ 56.3 µM) | MIC (Pseudomonas aeruginosa): 22.8 µg/mL (≈ 72.1 µM) | MIC (Escherichia coli): 40.6 µg/mL (≈ 128 µM)

CCn1cc(-c2csc(N)n2)c(=O)c2cc(F)c(N3CCNCC3)cc21
MIC [1]: 10.7 µg/mL (≈ 28.7 µM) | MIC (Micrococcus luteus): 64.2 µg/mL (≈ 172 µM) | MIC (Bacillus spizizenii): 10.7 µg/mL (≈ 28.7 µM) | MIC (Staphylococcus aureus [2]): 16 µg/mL (≈ 42.8 µM) | MIC (Bacillus): 2 µg/mL (≈ 5.36 µM) | MIC (Staphylococcus aureus [3]): 32.1 µg/mL (≈ 86 µM) | MIC (Pseudomonas aeruginosa): 4 µg/mL (≈ 10.7 µM) | MIC (Escherichia coli): 16 µg/mL (≈ 42.8 µM)

CCn1cc(-c2csc(N)n2)c(=O)c2cc(F)c(Cl)cc21
MIC [1]: 2.6 µg/mL (≈ 8.03 µM) | MIC (Micrococcus luteus): 26.6 µg/mL (≈ 82.2 µM) | MIC (Bacillus spizizenii): 10.6 µg/mL (≈ 32.7 µM) | MIC (Staphylococcus aureus [2]): inactive | MIC (Bacillus): 3.3 µg/mL (≈ 10.2 µM) | MIC (Staphylococcus aureus [3]): 8 µg/mL (≈ 24.7 µM) | MIC (Pseudomonas aeruginosa): 1.6 µg/mL (≈ 4.94 µM) | MIC (Escherichia coli): 6.7 µg/mL (≈ 20.7 µM)

CCn1cc(-c2csc(N)n2)c(=O)c2cc(F)c(N3CCCCC3)cc21
MIC [1]: 74.7 µg/mL (≈ 201 µM) | MIC (Micrococcus luteus): inactive | MIC (Bacillus spizizenii): 42.7 µg/mL (≈ 115 µM) | MIC (Staphylococcus aureus [2]): 64 µg/mL (≈ 172 µM) | MIC (Bacillus): 37.3 µg/mL (≈ 100 µM) | MIC (Staphylococcus aureus [3]): 53.3 µg/mL (≈ 143 µM) | MIC (Pseudomonas aeruginosa): 42.7 µg/mL (≈ 115 µM) | MIC (Escherichia coli): 128 µg/mL (≈ 344 µM)

CCn1cc(C(C)=O)c(=O)c2cc(F)c(N3CCCC3)cc21
MIC [1]: 122 µg/mL (≈ 404 µM) | MIC (Micrococcus luteus): 244 µg/mL (≈ 808 µM) | MIC (Bacillus spizizenii): 244 µg/mL (≈ 809 µM) | MIC (Staphylococcus aureus [2]): 5.1 µg/mL (≈ 16.9 µM) | MIC (Bacillus): 33.1 µg/mL (≈ 109 µM) | MIC (Staphylococcus aureus [3]): 50.9 µg/mL (≈ 168 µM) | MIC (Pseudomonas aeruginosa): 12.7 µg/mL (≈ 42 µM) | MIC (Escherichia coli): 43.3 µg/mL (≈ 143 µM)

CCn1cc(-c2csc(N)n2)c(=O)c2cc(N3CCOCC3)c(Cl)cc21
MIC [1]: 95.7 µg/mL (≈ 245 µM) | MIC (Micrococcus luteus): 128 µg/mL (≈ 327 µM) | MIC (Bacillus spizizenii): 255 µg/mL (≈ 653 µM) | MIC (Staphylococcus aureus [2]): 0.8 µg/mL (≈ 2.05 µM) | MIC (Bacillus): inactive | MIC (Staphylococcus aureus [3]): 255 µg/mL (≈ 653 µM) | MIC (Pseudomonas aeruginosa): 170 µg/mL (≈ 435 µM) | MIC (Escherichia coli): 128 µg/mL (≈ 327 µM)

CCn1cc(-c2csc(N)n2)c(=O)c2cc(N3CCCCC3)c(Cl)cc21
MIC [1]: 17.2 µg/mL (≈ 44.2 µM) | MIC (Micrococcus luteus): 49 µg/mL (≈ 126 µM) | MIC (Bacillus spizizenii): 19.6 µg/mL (≈ 50.4 µM) | MIC (Staphylococcus aureus [2]): 61.2 µg/mL (≈ 157 µM) | MIC (Bacillus): 34.4 µg/mL (≈ 88.4 µM) | MIC (Staphylococcus aureus [3]): 24.6 µg/mL (≈ 63.3 µM) | MIC (Pseudomonas aeruginosa): 34.4 µg/mL (≈ 88.4 µM) | MIC (Escherichia coli): 118 µg/mL (≈ 303 µM)

CCn1cc(-c2csc(N)n2)c(=O)c2cc(C)ccc21
MIC [1]: 24.1 µg/mL (≈ 84.5 µM) | MIC (Micrococcus luteus): 5.4 µg/mL (≈ 18.9 µM) | MIC (Bacillus spizizenii): 64.4 µg/mL (≈ 226 µM) | MIC (Staphylococcus aureus [2]): 2.4 µg/mL (≈ 8.41 µM) | MIC (Bacillus): 0.8 µg/mL (≈ 2.8 µM) | MIC (Staphylococcus aureus [3]): 129 µg/mL (≈ 451 µM) | MIC (Pseudomonas aeruginosa): 2.7 µg/mL (≈ 9.46 µM) | MIC (Escherichia coli): 4.7 µg/mL (≈ 16.5 µM)

CCn1cc(-c2csc(N)n2)c(=O)c2cc(OC)ccc21
MIC [1]: 8 µg/mL (≈ 26.5 µM) | MIC (Micrococcus luteus): 42.7 µg/mL (≈ 142 µM) | MIC (Bacillus spizizenii): 10.7 µg/mL (≈ 35.5 µM) | MIC (Staphylococcus aureus [2]): 18.8 µg/mL (≈ 62.4 µM) | MIC (Bacillus): 2.7 µg/mL (≈ 8.96 µM) | MIC (Staphylococcus aureus [3]): 256 µg/mL (≈ 849 µM) | MIC (Pseudomonas aeruginosa): 21.3 µg/mL (≈ 70.7 µM) | MIC (Escherichia coli): 13.3 µg/mL (≈ 44.1 µM)

CCn1cc(C(C)=O)c(=O)c2cc(N3CCCC3)c(Cl)cc21
MIC [1]: 18.7 µg/mL (≈ 58.7 µM) | MIC (Micrococcus luteus): 10.7 µg/mL (≈ 33.6 µM) | MIC (Bacillus spizizenii): 10.7 µg/mL (≈ 33.6 µM) | MIC (Staphylococcus aureus [2]): 18.7 µg/mL (≈ 58.7 µM) | MIC (Bacillus): 64 µg/mL (≈ 201 µM) | MIC (Staphylococcus aureus [3]): 16 µg/mL (≈ 50.2 µM) | MIC (Pseudomonas aeruginosa): 9.3 µg/mL (≈ 29.2 µM) | MIC (Escherichia coli): 26.7 µg/mL (≈ 83.8 µM)
